# Assay results as given in the NIST ThermoML archive (doi:10.1016/j.jct.2009.05.013).
# “And” between values parts separate entries of the source, which are not always exact repeats. Identical values can stand only once. Numbers after ± are expanded uncertainties.
# Settings: Crystal, Calculated from knudsen effusion weight loss
smiles,measurement,setting,value
"Nc1cc(Cl)c(Cl)cc1[N+](=O)[O-] [4,5-dichloro-2-nitrobenzenamine]",vapor or sublimation pressure,351.32 K,0.000199 ± 1e-05 kPa and 0.000196 ± 1e-05 kPa and 0.000193 ± 1e-05 kPa
same,vapor or sublimation pressure,353.21 K,0.000251 ± 1.3e-05 kPa and 0.000243 ± 1.2e-05 kPa and 0.000239 ± 1.2e-05 kPa
same,vapor or sublimation pressure,355.25 K,0.000288 ± 1.4e-05 kPa and 0.000286 ± 1.4e-05 kPa
same,vapor or sublimation pressure,357.24 K,0.000364 ± 1.8e-05 kPa and 0.000355 ± 1.8e-05 kPa
same,vapor or sublimation pressure,359.42 K,0.000463 ± 2.3e-05 kPa and 0.000453 ± 2.3e-05 kPa and 0.000452 ± 2.3e-05 kPa
same,vapor or sublimation pressure,361.45 K,0.000565 ± 2.8e-05 kPa and 0.000558 ± 2.8e-05 kPa and 0.000552 ± 2.8e-05 kPa
same,vapor or sublimation pressure,363.23 K,0.000665 ± 3.3e-05 kPa and 0.000673 ± 3.4e-05 kPa and 0.000675 ± 3.4e-05 kPa
same,vapor or sublimation pressure,365.49 K,0.000831 ± 4.2e-05 kPa and 0.000843 ± 4.2e-05 kPa and 0.000807 ± 4e-05 kPa
same,vapor or sublimation pressure,367.38 K,0.000995 ± 5e-05 kPa and 0.000996 ± 5e-05 kPa and 0.000976 ± 4.9e-05 kPa
